Key:
Format in all cases: cell-based
[1] = system: primary human fibroblasts from Sandhoff patients; assay: GM2 storage in gangliosidosis fibroblasts (Sandhoff), GSL analysis by HPLC; conditions: 30 uM, 13 days of treatment
Protocol: (§1) Human gangliosidosis fibroblast cells are obtained e.g., from Coriell Institute for Medical Research (http://ccr.coriell.org). The primary cells are cultured in minimum essential medium (MEM) with 15% fetal bovine serum (FBS) as instructed by the supplier.
(§2) The fibroblast cells are cultured in 6 well plates at a density of 5.0E05/well in MEM, 15% FBS. The cells are treated with compounds at 30 uM on the next day of culture. The non-selective glycolipid inhibitors PDMP and DGNJ, which inhibit glucosylceramide synthase, are used as control. All the treatments are performed in triplicate. The medium is changed every 5 days with fresh compounds added. After 13 days of treatment with compounds, the cells are harvested for GSL analysis. The conditioned medium is removed, the monolayer is washed with PBS and detached with 5 mM EDTA in PBS. An aliquot of the cell suspension is taken for cell viability count using Viacount.
The cells are spun down and the cell pellets are resuspended in water for GSL extraction. The cells are homogenized using a homogenizer at 6500 rpm for 30 seconds twice. Gangliosides are extracted from homogenates by using chloroform:methanol:water (4:8:3) followed by partitioning. The ganglioside containing upper phase is taken and dried down in a SpeedVac.
Purified total GSLs are subjected to endo-glucoceramidase (EGCase II, Sigma) treatment to release free glycans. ˜10 ug protein equivalent GSL is digested with 1 mU EGCaseII in 15 ul incubation buffer containing 50 mM sodium acetate, pH 5.5 and 0.4% TX100. Digestion is performed at 37° C. overnight. Released free glycans are tagged with anthranilic Acid (2-AA, Sigma). A labeling mix is prepared freshly in 4% sodium acetate (NaAc.3H2O) and 2% boric acid/methanol(w/v) by adding 45 mg NaBH3CN first and then adding 30 mg 2AA in a 1 ml solution. 40 ul of this labeling mix is added directly into digestion mix. The labeling is carried out at 80° C. for 45˜60 min. Free labeling reagents are removed by passing the reaction mix through a Discovery DPA-6S (Sigma) column. The DPA-6S column (50 mg) is pre-equilibrated twice with 1 ml acetonitrile (ACN). The reaction mixture is cooled down, 1 ml of 97% ACN is added, and the sample is loaded onto the column. The column is washed with four times with 1 ml of 99% ACN and once with 0.5 ml of 97% ACN. 2AA-glycans are eluted in two time 600 ul water. The eluates are dried down in a SpeedVac and subjected to HPLC analysis.
(§3) Purified 2-AA-labeled oligosaccharides are analyzed by HPLC an method as described by Neville et al. (Anal. Biochem, 2004, 331:275-282). 2-AA-oligosaccharides are separated by NP-HPLC using a 5 μm 4.6×250 mm TSK gel-Amide 80 column (Tosoh) on a Waters Alliance 2690 separation module equipped with a Waters 2475 fluorescence detector set at Exλ360 nm and Emλ425 nm. Solvent A is 80% ACN and 20% 100 mM ammonium acetate (AmAc), pH 3.85. Solvent B is 60% Milli-Q water, 20% ACN and 20% 100 mM AmAc, pH 3.85. The gradient profile is listed below. Glucose unites are determined based on a 2-AA-labeled glucose ladder (Ludger, UK).

[2] = system: NCI-H82 cells; assay: Ganglioside profiling of compound-treated NCI-H82 cells (GSL extraction, 2AA labeling, NP-HPLC); conditions: for cellular inhibition of specific ganglioside biosynthesis: NCI-H82 cells, 25, 12 and 6 uM, 96 hours, HPLC peaks; for preferential reduction effect on gangliosides GM3 and GD3: relative to other ganglioside species
Protocol: NCI-H82 cells were cultured in 6 well plates and treated with compounds at a concentration of 25, 12 and 6 uM in triplicates. PDMP (1-Phenyl-2-decanoylamino-3-morpholino-1-propanol, HCl, EMD #513100) at 25, 12, 6 uM and DGNJ (N-(n-Butyl) deoxygalactonojirimycin, EMD #203994) at 50 uM were used as controls. After 96 hours of compounds treatment the cells were harvested for ganglioside profiling. The suspension cells were centrifuged and the pellets washed once with PBS. Cells were resuspended in 1 ml of PBS, 1/100 of cells were taken to check the cell viability (Viacount)) and for glycosphingolipid (GSL) quantitation and normalization. 1/10 of cells were taken for CTB-FACS to check GM1 expression. The remaining cells were subjected to the ganglioside extraction procedure follow the protocol described by R. Schnaar (Methods in Enzymology, 230: 348-370, 1994).
Briefly, the cells were pelleted by centrifugation and resuspended in cold distilled-water. The cell suspension was homogenized with Polytron homogenizer. Glycolipids were extracted with chloroform:methanol:water at 4:8:3 ratio. Glycolipids were partitioned by adding 0.173 volume of water to extracted the supernatant. The upper […] phase (glycolipids) was dried in a vacuum centrifuge (SpeedVac).
Glycans were released from the glycolipids using the enzyme EGCase II (Sigma, Cat #E9030) as described by the manufacture. Released glycans were labeled with 2AA (2-Anthranilic acid, Sigma, Cat #A89804) following the procedures described by D. Neville (Analytical Biochemistry, 331 (2004) 275-282). Non-incorporated 2AA was removed by column chromatography (Discovery DPA-6S). Briefly, the extracted GSLs were digested with EGCase in a 10 ul reaction volume overnight. 40 ul of labeling mix (30 mg/ml 2-AA, 45 mg/ml […] in 4% NaAc and 2% boric acid in methano) were added. The reaction was carried at 80° C. for 45 min. 2AA-labeled glycans were purified by column chromatography (Discovery DPA-6S). The column was preequilibrated with 2×1 ml 97% acetonitrile (ACN) and the sample was loaded by adding 1 ml 97% ACN to the reaction mix. The column was washed 4× with 1 ml 97% ACN and the 2AA-labeled […] were eluted with 2×0.6 ml water. After drying down (SpeedVac), the sample were resuspended and analyzed by normal phase high performance liquid chromatography (NP-HPLC).
Purified 2AA-GSL glycans were separated on NP-HPLC using a 4.6×250 mm TSK Gel-Amide-80 column (Tosoh Bioscience). The chromatography system consisted of a Waters Alliance 2690/5 separation module and an in-line Waters 2475 fluorescence detector set at Exλ360 nm and Emλ425 nm. All chromatography was performed at 30° C. Solvent A was 20% 100 mM ammonium acetate pH3.85, 80% Acetonitrile, solvent B was 20% 100 mM ammonium acetate pH3.85, 20% ACN and 60% Milli-Q water. The gradient was run from 86% A to 54.7% A in 55 min at flow rate 0.8˜1.2 ml/min (Analytical Biochemistry, 331 (2004) 275-282). Chromatography data was processed using Waters Empower software. Glucose units were determined based on a 2AA-labeled glucose oligomer ladder (Ludger). All 2AA-GSL standards were prepared in house and labeled as glucose units.
FIGS. 18-25 illustrate the dose dependent effects on individual gangliosides (individual HPLC peaks) of various compounds as determined according to the methods of Example 5, but with additional and slightly altered concentration levels used for test compound dosing.

[3] = system: primary human fibroblasts from Tay-Sachs patients; assay: GM2 storage in gangliosidosis fibroblasts (Tay-Sachs), GSL analysis by HPLC; conditions: 30 uM, 13 days of treatment
Protocol: as §1
as §2, with “Viacount. […]” for “Viacount.”
as §3, with “Solvent A is 80% ACN and 20% 100 mM ammonium acetate (AmAc), pH 3.85. Solvent B is 60% Milli-Q water, 20% ACN and 20% 100 mM AmAc, pH 3.85. The gradient profile is listed below.” left out

[4] = NCI-H82 cells, HPLC peak area as % of untreated
[5] = NCI-H82 cells, HPLC peak areas as % of untreated

CCCCN1C[C@H](O)[C@@H](O)[C@@H](O)[C@H]1CO [DGNJ, N-(n-Butyl) deoxygalactonojirimycin, reference compound]
reduction of GM2 storage in primary human fibroblasts from Sandhoff patients [1]: reduction

CCCCCCCCCC(=O)NC(CN1CCOCC1)C(O)c1ccccc1 (stereo not drawn) [PDMP, 1-Phenyl-2-decanoylamino-3-morpholino-1-propanol, reference compound]
cellular inhibition of specific ganglioside biosynthesis [2]: inhibition
reduction of GM2 storage in primary human fibroblasts from Sandhoff patients [1]: reduction

CN(C)c1ccc(-c2nc3c(C(C)(C)C)cc(C(C)(C)C)c(O)c3o2)cc1 [compound 2, 4,6-di-tert-butyl-2-(4-(dimethylamino)phenyl)benzo[d]oxazol-7-ol]
cellular inhibition of specific ganglioside biosynthesis [2]: inhibition
dose dependent reduction effect on ganglioside GD1b [2, 4]: dose dependent reduction

CSc1ccc(-c2ncnn2-c2sc3c(c2C#N)CCCCC3)cc1 [compound 3, 2-(5-(4-(methylthio)phenyl)-1H-1,2,4-triazol-1-yl)-5,6,7,8-tetrahydro-4H-cyclohepta[b]thiophene-3-carbonitrile]
preferential reduction effect on gangliosides GM3 and GD3 ([2]; NCI-H82 cells): preferential reduction
reduction of GM2 storage in primary human fibroblasts from Sandhoff patients [1]: reduction

N#Cc1c(-n2ncnc2-c2ccc(F)cc2)sc2c1CCCCC2 [compound 4, 2-(5-(4-fluorophenyl)-1H-1,2,4-triazol-1-yl)-5,6,7,8-tetrahydro-4H-cyclohepta[b]thiophene-3-carbonitrile]
dose dependent reduction effect on ganglioside GD3 [2, 4]: dose dependent reduction
reduction in B series gangliosides relative to A series gangliosides [2, 5]: reduction

CC(C)(C)c1cc(C(C)(C)C)c2nc(-c3cc(Br)ccc3O)oc2c1O [compound 5, 2-(5-bromo-2-hydroxyphenyl)-4,6-di-tert-butylbenzo[d]oxazol-7-ol]
dose dependent reduction effect on ganglioside GD2 [2, 4]: dose dependent reduction
preferential reduction effect on 2 series gangliosides GM2 and GD2 relative to the 3 series gangliosides GM3 and GD3 [2, 5]: preferential reduction
reduction of GM2 storage in primary human fibroblasts from Sandhoff patients [1]: reduction

CC1=C(C(=O)Nc2ccccc2)C(c2ccccc2)C(C#N)=C(SCC(=O)NCc2ccccc2)N1 (stereo not drawn) [compound 7, 6-(2-(benzylamino)-2-oxoethylthio)-5-cyano-2-methyl-N,4-diphenyl-1,4-dihydropyridine-3-carboxamide]
reduction of GM2 storage in primary human fibroblasts from Sandhoff patients [1]: reduction

CC(C)CNc1oc(-c2cccs2)nc1C#N [compound 8, 5-(isobutylamino)-2-(thiophen-2-yl)oxazole-4-carbonitrile]
preferential reduction effect on gangliosides GM3 and GD3 ([2]; NCI-H82 cells): preferential reduction
reduction of GM2 storage in primary human fibroblasts from Sandhoff patients [1]: reduction

COc1cc(/C=C/c2ccc3cccc(OCc4ccccc4)c3n2)cc([N+](=O)[O-])c1OC(C)=O [compound 15, (E)-4-(2-(8-(benzyloxy)quinolin-2-yl)vinyl)-2-methoxy-6-nitrophenyl acetate]
cellular inhibition of specific ganglioside biosynthesis [2]: inhibition

Cc1ccc(C=NN2CCN(c3ccc(Cl)cc3)CC2)o1 [compound 17, 4-(4-chlorophenyl)-N-((5-methylfuran-2-yl)methylene)piperazin-1-amine]
cellular inhibition of specific ganglioside biosynthesis [2]: inhibition
dose dependent reduction effect on ganglioside GM3 [2, 4]: dose dependent reduction
reduction of GM2 storage in primary human fibroblasts from Sandhoff patients [1]: reduction

CC(C)(C)C1=CC(=Nc2ccc(Br)cc2)C=C(C(C)(C)C)C1=O [compound 18, 4-(4-bromophenylimino)-2,6-di-tert-butylcyclohexa-2,5-dienone]
dose dependent reduction effect on ganglioside GM2 [2, 4]: dose dependent reduction

COc1ccc(/C(C)=N/Nc2nc3ccccc3nc2C)cc1OC [compound 19, (E)-2-(2-(1-(3,4-dimethoxyphenyl)ethylidene)hydrazinyl)-3-methylquinoxaline]
dose dependent reduction effect on ganglioside GM1 [2, 4]: dose dependent reduction
reduction of GM2 storage in primary human fibroblasts from Sandhoff patients [1]: reduction

COc1cccc(-c2nc3c(C(C)(C)C)cc(C(C)(C)C)c(O)c3o2)c1OC [compound 20, 4,6-di-tert-butyl-2-(2,3-dimethoxyphenyl)benzo[d]oxazol-7-ol]
reduction of GM2 storage in primary human fibroblasts from Sandhoff patients [1]: reduction

Cc1cc(OCC(=O)Nc2ccc(N(C)C)cc2)cc(C)c1Cl [compound 21, 2-(4-chloro-3,5-dimethylphenoxy)-N-(4-(dimethylamino)phenyl)acetamide]
reduction of GM2 storage in primary human fibroblasts from Tay-Sachs patients [3]: reduction

— patent US20100248365A1, “GANGLIOSIDE BIOSYNTHESIS MODULATORS” (ZACHARON PHARMACEUTICALS, INC., priority 2009, published 2010)
